# Tested on: hepatocellular carcinoma cell line Hub-7
# Test: Anti-proliferation activity in the presence of a ferroptosis inhibitor
# Assay type: cell-based
# Conditions: in the presence of liproxstatin-1 (1 μM); read-out: Inhibition of Cell Proliferation EC50, Liproxstatin-1
# Protocol: (§1) The activity of a test compound was determined in a cell proliferation assay using the hepatocellular carcinoma cell line […]. Cells (4,000 cells per well) were seeded in a 96-well tissue culture plate. After incubated overnight, a test compound was added at predetermined concentrations, starting with 10 μM and followed by 3-fold serial dilution. After the cells were incubated for 24 h, cell viability was determined using a CELL-TITER GLO® assay. The CELL-TITER GLO® reagent (50 μL) was added to each well and the luminescence was measured by a multimode microplate reader after a brief period of shaking. EC50 values were determined for the test compound. The results are summarized in Table 1, wherein A represents a value no greater than 100 nM, B represents a value greater than 100 nM but no greater than 500 nM, C represents a value greater than 500 nM but no greater than 2 μM, D represents a value greater than 2 μM but no greater than 10 μM; and E represents a value greater than 10 μM.
# (§2) The anti-proliferation activity of compound 80 was tested in the presence of an ferroptosis inhibitor, ferrostatin-1 (1 μM) or liproxstatin-1 (1 μM).
row,EC50 [nM],Structure (SMILES)
1,> 10000,"C#CC(=O)N(c1cccc(Cl)c1)C1(C(=O)NCc2ccccc2)CCOCC1 [A80, N-Benzyl-4-(N-(3-chlorophenyl)propiolamido)tetrahydro-2H-pyran-4-carboxamide]"

# Same assay, conditions: read-out: Inhibition of Cell Proliferation EC50, No Ferroptosis inhibitor
row,EC50 [nM],Structure (SMILES)
1,≤ 100,"C#CC(=O)N(c1cccc(Cl)c1)C1(C(=O)NCc2ccccc2)CCOCC1 [A80, N-Benzyl-4-(N-(3-chlorophenyl)propiolamido)tetrahydro-2H-pyran-4-carboxamide]"

# Tested on: hepatocellular carcinoma cell line
# Test: as above
# Assay type: cell-based
# Conditions: in the presence of ferrostatin-1 (1 μM); read-out: Inhibition of Cell Proliferation EC50, Ferrostatin-1
# Protocol: as §1, §2
row,EC50 [nM],Structure (SMILES)
1,> 10000,"C#CC(=O)N(c1cccc(Cl)c1)C1(C(=O)NCc2ccccc2)CCOCC1 [A80, N-Benzyl-4-(N-(3-chlorophenyl)propiolamido)tetrahydro-2H-pyran-4-carboxamide]"

# Tested on: hepatocellular carcinoma cell line Hub-7
# Test: Cell proliferation assay (CELL-TITER GLO cell viability)
# Assay type: cell-based
# Conditions: 24 h, Hub-7 cells, 24 h incubation, read-out: Inhibition of Cell Proliferation EC50
# How it was run: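 […] cells (4,000/well) seeded overnight, then exposed 24 h to compound from 10 μM in 3-fold serial dilutions. Viability read by CELL-TITER GLO luminescence; EC50 values derived.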
row,Structure (SMILES),EC50 [nM]
1,"C#CC(=O)N(c1cccc(Cl)c1)C1(C(=O)NCC(=O)NCCO)CCOCC1 [A186, 4-(N-(3-Chlorophenyl)propiolamido)-N-(2-((2-hydroxyethyl)amino)-2-oxoethyl)-tetrahydro-2H-pyran-4-carboxamide]",2000 to 10000
2,"C#CC(=O)N(c1ccc(CO)cc1)C(C(=O)NC(C)(C)C)c1ccc(N)cc1 (stereo not drawn) [A16, N-(1-(4-Aminophenyl)-2-(tert-butylamino)-2-oxoethyl)-N-(4-(hydroxymethyl)-phenyl)propiolamide]",2000 to 10000
3,"CC#CC(=O)N(c1ccc2c(cnn2C)c1)C1(C(=O)NCc2ccccc2)CCCC(C(=O)OC)C1 (stereo not drawn) [A127, Methyl3-(benzylcarbamoyl)-3-(N-(1-methyl-1H-indazol-5-yl)but-2-ynamido)-cyclohexane-1-carboxylate]",> 10000
4,"C=CC(=O)N(c1cccc(Cl)c1)C1(C(=O)NCc2ccccc2)CCOCC1 [B5, N-Benzyl-4-(N-(3-chlorophenyl)acrylamido)tetrahydro-2H-pyran-4-carboxamide]",> 10000
5,"C#CC(=O)N(c1cccc(S(N)(=O)=O)c1)C(C(=O)NC(C)(C)C)c1ccc(N)cc1 (stereo not drawn) [A2, N-(1-(4-aminophenyl)-2-(tert-butylamino)-2-oxoethyl)-N-(3-sulfamoylphenyl)propiolamide]",> 10000
6,"C#CC(=O)N(CCc1ccccc1)C1(C(=O)NCc2ccccc2)CCCC(C(=O)O)C1 (stereo not drawn) [A169, 3-(Benzylcarbamoyl)-3-(N-phenethylpropiolamido)cyclohexane-1-carboxylic acid]",> 10000
7,"Cn1ncc2cc(N(C(=O)CCBr)C3(C(=O)NCc4ccccc4)CCOCC3)ccc21 [D6, N-Benzyl-4-(3-bromo-N-(1-methyl-1H-indazol-5-yl)propanamido)tetrahydro-2H-pyran-4-carboxamide]",> 10000
8,"C#CC(=O)N(c1ccc(N(C)C)cc1)C1(C(=O)NCc2ccccc2)CCOCC1 [A140, N-Benzyl-4-(N-(4-(dimethylamino)phenyl)propiolamido)tetrahydro-2H-pyran-4-carboxamide]",100 to 500

# The next lines start with the values.
row,EC50 [nM],Structure (SMILES)
1,≤ 100,"C#CC(=O)N(c1cccc(Cl)c1)C1(C(=O)NCc2ccccc2)CCOCC1 [A80, N-Benzyl-4-(N-(3-chlorophenyl)propiolamido)tetrahydro-2H-pyran-4-carboxamide]"
2,≤ 100,"C#CC(=O)N(c1cc2c(cc1I)OCO2)C(C(=O)NCc1ccccc1)c1ccccc1 (stereo not drawn) [A146, N-(2-(Benzylamino)-2-oxo-1-phenylethyl)-N-(6-iodobenzo[d][1,3]dioxol-5-yl)-propiolamide]"
3,≤ 100,"C#CC(=O)N(c1ccc2c(cnn2C)c1)C1(C(=O)NCc2ccccc2)CCCC(C(=O)OC)C1 (stereo not drawn) [A177, Methyl 3-(benzylcarbamoyl)-3-(N-(1-methyl-1H-indazol-5-yl)propiolamido)-cyclohexane-1-carboxylate]"
4,≤ 100,"C#CC(=O)N(c1ccc(C#N)cc1)C(C(=O)NCc1ccccc1)c1ccc(N)cc1 (stereo not drawn) [A66, N-(1-(4-Aminophenyl)-2-(benzylamino)-2-oxoethyl)-N-(4-cyanophenyl)-propiolamide]"
5,≤ 100,"C#CC(=O)N(c1ccc2c(c1)C(=O)OC2)C1(C(=O)NCc2ccccc2)CCOCC1 [A149, N-Benzyl-4-(N-(3-oxo-1,3-dihydroisobenzofuran-5-yl)propiolamido)tetrahydro-2H-pyran-4-carboxamide]"
6,≤ 100,"C#CC(=O)N(c1ccc(OC)c(Cl)c1)C(C(=O)NCc1ccccc1)c1ccc(N)cc1 (stereo not drawn) [A53, N-(1-(4-Aminophenyl)-2-(benzylamino)-2-oxoethyl)-N-(3-chloro-4-methoxy-phenyl)propiolamide]"
7,≤ 100,"COc1ccc(N(C(=O)CCl)C2(C(=O)NCc3ccccc3)CCC(F)(F)CC2)cc1Cl [C27, N-Benzyl-1-(2-chloro-N-(3-chloro-4-methoxyphenyl)acetamido)-4,4-difluoro-cyclohexane-1-carboxamide]"
8,≤ 100,"C#CC(=O)N(c1cccc(Cl)c1)C1(C(=O)NCc2cccc(Cl)c2)CCOCC1 [A182, N-(3-Chlorobenzyl)-4-(N-(3-chlorophenyl)propiolamido)tetrahydro-2H-pyran-4-carboxamide]"
9,100 to 500,"C#CC(=O)N(c1cccc(C#N)c1)C(C(=O)NCc1ccccc1)c1ccc(N)cc1 (stereo not drawn) [A55, N-(1-(4-Aminophenyl)-2-(benzylamino)-2-oxoethyl)-N-(3-cyanophenyl)-propiolamide]"
10,100 to 500,"C#CC(=O)N(c1cccc(Cl)c1F)C(C(=O)NCc1ccccc1)c1ccccc1 (stereo not drawn) [A81, N-(2-(Benzylamino)-2-oxo-1-phenylethyl)-N-(3-chloro-2-fluorophenyl)-propiolamide]"
11,≤ 100,"C#CC(=O)N(c1cccc(C(=O)OC)c1)C(C(=O)NC(C)(C)C)c1ccc(N)cc1 (stereo not drawn) [A8, Methyl 3-(N-(1-(4-aminophenyl)-2-(tert-butylamino)-2-oxoethyl)-propiolamido)-benzoate]"
12,≤ 100,"C#CC(=O)N(c1ccccc1N1CCOCC1)C1(C(=O)NCc2ccccc2)CCOCC1 [A139, N-Benzyl-4-(N-(2-morpholinophenyl)propiolamido)tetrahydro-2H-pyran-4-carboxamide]"
13,100 to 500,"COc1ccc(N(C(=O)CCl)C2(C(=O)NCc3ccccc3)CCOCC2)cc1Cl [C25, N-Benzyl-4-(2-chloro-N-(3-chloro-4-methoxyphenyl)acetamido)tetrahydro-2H-pyran-4-carboxamide]"
14,≤ 100,C#CC(=O)N(c1cccc(C(=O)OC)c1)C(C(=O)NCc1ccccc1)c1cccc(N)c1 (stereo not drawn) [A122]

# Same assay, conditions: Hub-7 cells, 24 h incubation, control, read-out: EC50
row,EC50 [nM],Structure (SMILES)
1,138,"COc1ccc(N(C(=O)CCl)C(C(=O)NCCc2ccccc2)c2cccs2)cc1Cl (stereo not drawn) [ML-162, reference compound]"

# Same assay, conditions: Hub-7 cells, 24 h incubation, read-out: Inhibition of Cell Proliferation EC50
row,EC50 [nM],Structure (SMILES)
1,100 to 500,"COc1ccc(N(C(=O)CCl)C(C(=O)NCCc2ccccc2)c2cccs2)cc1Cl (stereo not drawn) [ML-162, reference compound]"

# Source: patent US12516016B2, “GPX4 inhibitors, pharmaceutical compositions thereof, and their use for treating GPX4-mediated diseases” (EUBULUS BIOTHERAPEUTICS (HONG KONG) LIMITED, priority 2020, dated 2026)
